Patent KR20180087157A, “Blt 저해 활성을 갖는 화합물을 유효성분으로 포함하는 만성 폐쇄성 폐질환 예방 또는 치료용 약학적 조성물” (동국대학교 산학협력단, priority 2017, dated 2018)

Assays:
[1] = system: BLT2-expressing cells [BLT2가 발현된 세포 (CHO-BLT2 cells)]; experiment: LTB4-induced BLT2-dependent chemotactic motility (Transwell), CHO-BLT2; format: cell-based, human; conditions: for inhibition of chemotaxis: LTB4-stimulated CHO-BLT2 cells, result in words; for IC50: read-out: IC50 (50% inhibitory concentration), chemotaxis, CHO-BLT2 cells, LTB4-induced, serum-free; for inhibition at 10 µM: 10 μM pretreatment, compared with LTB4 (300 nM) treatment (DMSO+), read-out: chemotaxis inhibition
[2] = system: BLT1-expressing cells [BLT1이 발현된 세포 (CHO-BLT1)]; experiment: LTB4-induced chemotactic motility (Transwell), CHO-BLT1; format: cell-based
[3] = system: BLT2-expressing cells [BLT2가 발현된 세포 (CHO-BLT2 cells)]; experiment: LPA-induced chemotactic motility (Transwell), CHO-BLT2; format: cell-based, human
[4] = system: BLT2-expressing cells [BLT2가 발현된 세포 (CHO-BLT2 cells)]; experiment: Growth inhibition of BLT2-expressing cells (MTT cell viability); format: cell-based; conditions: for inhibition at 10 µM: 10 μM pretreatment 1 h, then LTB4 300 nM, 24 h, read-out: growth inhibition effect; for inhibition of BLT2-induced cell proliferation: 10 μM, LTB4 300 nM, result in words
[5] = system: inflammatory cells (neutrophils) [염증세포(호중구)]; experiment: Inflammatory cell infiltration in BALF, cigarette smoke and LPS induced COPD mice; format: in vivo, mouse; conditions: C57BL/6N mice, oral 1 h before smoke, result in words
[6] = system: neutrophil elastase (NE); experiment: NE measurement in BALF, cigarette smoke and LPS induced COPD mice; format: in vivo, mouse; conditions: C57BL/6N mice, oral 1 h before smoke, result in words
[7] = system: reactive oxygen species (ROS); experiment: ROS measurement in BALF, cigarette smoke and LPS induced COPD mice; format: in vivo, mouse; conditions: C57BL/6N mice, oral 1 h before smoke, result in words
[8] = system: TNF-α; experiment: TNF-α measurement in BALF, cigarette smoke and LPS induced COPD mice; format: in vivo, mouse; conditions: C57BL/6N mice, oral 1 h before smoke, result in words
[9] = system: IL-6; experiment: IL-6 measurement in BALF, cigarette smoke and LPS induced COPD mice; format: in vivo, mouse; conditions: C57BL/6N mice, oral 1 h before smoke, result in words
[10] = system: cigarette smoke and lipopolysaccharide induced chronic obstructive pulmonary disease animal model [담배연기 및 지질다당류로 유발된 만성 폐쇄성 폐질환 동물 모델]; experiment: H&E staining of lung tissue, cigarette smoke and LPS induced COPD mice; format: in vivo, mouse; conditions: C57BL/6N mice; for improvement of lung inflammation: cigarette smoke + LPS COPD model, overall result in words; for infiltration of inflammatory cells (H&E): cigarette smoke + LPS, 10 or 20 mg/kg oral, lung tissue, compared with COPD group, result in words
[11] = 10 μM pretreatment, compared with LTB4 (10 nM) treatment (DMSO+), result in words

**Q.** For `CCCCC(=O)N(Cc1ccc(-c2ccc(OCC(=O)O)cc2)cc1)c1cccc(F)c1` [AC-1074, 2-(4'-((N-(3-fluorophenyl)pentanamido)methyl)biphenyl-4-yloxy)acetic acid], which inhibition of chemotaxis [1] is on record?
**A.** 현저히 저해

**Q.** And the change in chemotaxis [2, 11]?
**A.** 변화가 없음

**Q.** And the change in chemotaxis ([3]; 10 μM pretreatment, compared with LPA (100 nM) treatment (DMSO+), result in words)?
**A.** 변화가 없음

**Q.** What does the source list for `CCCCC(=O)N(Cc1ccc(-c2ccc(O)cc2)cc1)c1cccc(Br)c1` [AC-1632, N-(3-bromophenyl)-N-((4'-hydroxybiphenyl-4-yl)methyl)pentanamide]?
**A.** inhibition at 10 µM [4]: 78.7%; inhibition of BLT2-induced cell proliferation [4]: 매우 우수한 효율로 억제

**Q.** Which inhibition at 10 µM [4] does the source give for `CCCCC(=O)N(Cc1ccc(-c2ccc(O)cc2)cc1)c1cccc(C(F)(F)F)c1` [AC-1635, N-((4'-hydroxybiphenyl-4-yl)methyl)-N-(3-(trifluoromethyl)phenyl)pentanamide] here?
**A.** 71.6%

**Q.** And the “inhibition of BLT2-induced cell proliferation” value [4]?
**A.** 매우 우수한 효율로 억제

**Q.** For `COc1ccc(-c2ccc(CN(C(C)=O)c3cccc(F)c3)cc2)cc1` [AC-1646, N-(3-fluorophenyl)-N-((4'-methoxybiphenyl-4-yl)methyl)acetamide], which inhibition at 10 µM [4] is on record?
**A.** 72.1%

**Q.** And the “inhibition of BLT2-induced cell proliferation” value [4]?
**A.** 매우 우수한 효율로 억제

**Q.** For `CCCCC(=O)N(Cc1ccc(-c2ccc(C(=O)N3CCN(C(C)C)CC3)cc2)cc1)c1ccc(F)cc1` [AC-1650, N-(4-fluorophenyl)-N-((4'-(4-isopropylpiperazine-1-carbonyl)biphenyl-4-yl)methyl)pentanamide], which inhibition at 10 µM [4] is on record?
**A.** 82.2%

**Q.** What about the “inhibition of BLT2-induced cell proliferation” value [4] of the same molecule?
**A.** 매우 우수한 효율로 억제

**Q.** How did the “inhibition of BLT2-induced cell proliferation” value [4] turn out when `CCCCC(=O)N(CC#Cc1ccc(C(=O)N2CCN(C)CC2)cc1)c1ccccc1` [LMT-692, N-(3-(4-(4-methylpiperazine-1-carbonyl)phenyl)prop-2-ynyl)-N-phenylpentanamide] was run?
**A.** 매우 우수한 효율로 억제

**Q.** And the IC50 ([1]; Homo sapiens)?
**A.** 7570 nM

**Q.** What about the inhibition at 10 µM ([1]; Homo sapiens) of the same molecule?
**A.** 66%

**Q.** And the inhibition of chemotaxis [1]?
**A.** 현저히 저해

**Q.** And the chemotaxis inhibition [2, 11]?
**A.** 억제되지 않음

**Q.** `CCCCC(=O)N(CC#Cc1ccc(C(=O)N2CCNCC2)cc1)c1ccccc1` [LMT-694, N-phenyl-N-(3-(4-(piperazine-1-carbonyl)phenyl)prop-2-ynyl)pentanamide] was tested. Which inhibition at 10 µM ([1]; Homo sapiens) did it give?
**A.** 90%

**Q.** What about the chemotaxis inhibition [2, 11] of the same molecule?
**A.** 억제되지 않음

**Q.** How did the “inhibition of BLT2-induced cell proliferation” value [4] turn out when `CCCCC(=O)N(CC#Cc1ccc(C(=O)N2CCN(C(C)C)CC2)cc1)c1ccccc1` [LMT-696, N-(3-(4-(4-isopropylpiperazine-1-carbonyl)phenyl)prop-2-ynyl)-N-phenylpentanamide] was run?
**A.** 매우 우수한 효율로 억제

**Q.** And the IC50 ([1]; Homo sapiens)?
**A.** 2000 nM

**Q.** And the inhibition at 10 µM ([1]; Homo sapiens)?
**A.** 70.3%

**Q.** What about the inhibition of chemotaxis [1] of the same molecule?
**A.** 현저히 저해

**Q.** And the chemotaxis inhibition [2, 11]?
**A.** 억제되지 않음

**Q.** With `CCCCC(=O)N(CC#Cc1cccc(C(=O)N2CCNCC2)c1)c1ccccc1` [LMT-837, N-phenyl-N-(3-(3-(piperazine-1-carbonyl)phenyl)prop-2-ynyl)pentanamide] as the molecule, how does the inhibition at 10 µM [4] read?
**A.** 65%

**Q.** What about the “inhibition of BLT2-induced cell proliferation” value [4] of the same molecule?
**A.** 매우 우수한 효율로 억제

**Q.** `CCCCC(=O)N(CC#Cc1ccc(C(=O)N2CCN(C(C)C)CC2)cc1)c1ccc(F)cc1` [LMT-841, N-(4-fluorophenyl)-N-(3-(4-(4-isopropylpiperazine-1-carbonyl)phenyl)prop-2-ynyl)pentanamide] was tested. Which inhibition at 10 µM [4] did it give?
**A.** 60%

**Q.** What about the “inhibition of BLT2-induced cell proliferation” value [4] of the same molecule?
**A.** 매우 우수한 효율로 억제

**Q.** With `CCCCC(=O)N(CC#Cc1cccc(C(=O)N2CCN(C(C)C)CC2)c1)c1ccccc1` [LMT-842, N-(3-(3-(4-isopropylpiperazine-1-carbonyl)phenyl)prop-2-ynyl)-N-phenylpentanamide] as the molecule, how does the inhibition at 10 µM [4] read?
**A.** 70%

**Q.** And the “inhibition of BLT2-induced cell proliferation” value [4]?
**A.** 매우 우수한 효율로 억제

**Q.** Which results are given for `CCCCC(=O)N(CC#Cc1ccc(C(=O)N(CC)CC)cc1)c1ccccc1` [LMT-883, N,N-diethyl-4-(3-(N-phenylpentanamido)prop-1-ynyl)benzamide]?
**A.** inhibition at 10 µM [4]: 99%; inhibition of BLT2-induced cell proliferation [4]: 매우 우수한 효율로 억제

**Q.** What does the source list for `CCCCC(=O)N(CC#Cc1ccc(C(=O)N2CCN(C(C)C)CC2)cc1)c1cccc(F)c1` [LMT-886, N-(3-fluorophenyl)-N-(3-(4-(4-isopropylpiperazine-1-carbonyl)phenyl)prop-2-ynyl)pentanamide]?
**A.** inhibition at 10 µM [4]: 99%; inhibition of BLT2-induced cell proliferation [4]: 매우 우수한 효율로 억제; infiltration of inflammatory cells (neutrophils) [5]: 유의적으로 감소; NE production [6]: 유의적으로 감소; ROS production [7]: 유의적으로 감소; TNF-α production [8]: 현저히 감소; IL-6 production [9]: 현저히 감소; improvement of lung inflammation [10]: 폐의 염증을 개선하는 효능; infiltration of inflammatory cells (H&E) [10]: 감소

**Q.** How did the “inhibition of BLT2-induced cell proliferation” value [4] turn out when `CCCCC(=O)N(CC#Cc1ccc(C(=O)O)cc1)c1ccccc1` [LMT-1013, 4-(3-(N-phenylpentanamido)prop-1-yn-1-yl)benzoic acid] was run?
**A.** 매우 우수한 효율로 억제

**Q.** What about the IC50 ([1]; Homo sapiens) of the same molecule?
**A.** 62.4 nM

**Q.** What about the inhibition of chemotaxis [1] of the same molecule?
**A.** 현저히 저해

**Q.** What about the IC50 ([2]; read-out: IC50 (50% inhibitory concentration), chemotaxis, CHO-BLT1 cells, LTB4-induced, serum-free) of the same molecule?
**A.** ≥ 10000 nM

**Q.** And the “infiltration of inflammatory cells (neutrophils)” value [5]?
**A.** 유의적으로 감소

**Q.** What about the NE production [6] of the same molecule?
**A.** 유의적으로 감소

**Q.** What about the ROS production [7] of the same molecule?
**A.** 유의적으로 감소

**Q.** What about the TNF-α production [8] of the same molecule?
**A.** 현저히 감소

**Q.** What about the IL-6 production [9] of the same molecule?
**A.** 현저히 감소

**Q.** And the “improvement of lung inflammation” value [10]?
**A.** 폐의 염증을 개선하는 효능

**Q.** And the “infiltration of inflammatory cells (H&E)” value [10]?
**A.** 감소

**Q.** Which results are given for `CCCCC(=O)N(CC#Cc1ccc(C(=O)NCCN(C)C)cc1)c1ccccc1` [LMT-1016, N-(2-(dimethylamino)ethyl)-4-(3-(N-phenylpentanamido)prop-1-yn-1-yl)benzamide]?
**A.** inhibition at 10 µM [4]: 99%; inhibition of BLT2-induced cell proliferation [4]: 매우 우수한 효율로 억제

**Q.** For `CCCCC(=O)N(CC#Cc1ccc(C(=O)NC(C)C(=O)OC)cc1)c1ccccc1` (centres unmarked) [LMT-1018, methyl 2-(4-(3-(N-phenylpentanamido)prop-1-yn-1-yl)benzamido)propanoate], which inhibition at 10 µM [4] is on record?
**A.** 71.6%

**Q.** And the “inhibition of BLT2-induced cell proliferation” value [4]?
**A.** 매우 우수한 효율로 억제

**Q.** Which results are given for `CCCCC(=O)N(CC#Cc1ccc(C(=O)NC(C)C(=O)O)cc1)c1ccccc1` (centres unmarked) [LMT-1019, 2-(4-(3-(N-phenylpentanamido)prop-1-yn-1-yl)benzamido)propanoic acid]?
**A.** inhibition at 10 µM [4]: 99%; inhibition of BLT2-induced cell proliferation [4]: 매우 우수한 효율로 억제

**Q.** For `CCCCCCCC/C=C\CCCCCCCC(=O)OC[C@@H](O)COP(=O)(O)O` [LPA, lysophosphatidic acid, reference compound], which fold induction at 0.1 µM ([3]; Homo sapiens, 3 h, LPA 100 nM (DMSO+) compared with ethanol (DMSO-), read-out: increase in cell chemotaxis) is on record?
**A.** 3.4

**Q.** What does the source list for `CCCCC/C=C\C[C@@H](O)/C=C/C=C/C=C\[C@@H](O)CCCC(=O)O` [LTB4, Leukotriene B4, reference compound]?
**A.** fold induction at 0.3 µM ([1]; Homo sapiens, 3 h, LTB4 300 nM (DMSO+) compared with ethanol (DMSO-), read-out: increase in cell chemotaxis): 2.4; increase in cell chemotaxis ([1]; LTB4 300 nM (DMSO+) compared with ethanol (DMSO-), 180 min, 0.3 µM): 2.9 fold; fold induction at 0.01 µM ([2]; 3 h, LTB4 10 nM (DMSO+) compared with ethanol (DMSO-), read-out: increase in cell chemotaxis): 2.2; increase in cell chemotaxis ([2]; cho-blt1 cells, 3 h, 0.01 µM): 2.8 fold
